For 2 compounds, IC50, inhibition and Activity results are on record in ChEMBL document CHEMBL3875218, “Bifunctional conjugates with potent inhibitory activity towards cyclooxygenase and histone deacetylase” (Bioorg Med Chem, 2017).

One assay deals with Histone deacetylase 2 (Homo sapiens, UniProt Q92769). Briefly: Inhibition of HDAC2 (unknown origin) after 24 hrs by SAMDI mass spectroscopic analysis.
In assay [1] the target is T1, Prostaglandin G/H synthase 1 (Ovis aries) (UniProt P05979).
T1 sequence (whole entry): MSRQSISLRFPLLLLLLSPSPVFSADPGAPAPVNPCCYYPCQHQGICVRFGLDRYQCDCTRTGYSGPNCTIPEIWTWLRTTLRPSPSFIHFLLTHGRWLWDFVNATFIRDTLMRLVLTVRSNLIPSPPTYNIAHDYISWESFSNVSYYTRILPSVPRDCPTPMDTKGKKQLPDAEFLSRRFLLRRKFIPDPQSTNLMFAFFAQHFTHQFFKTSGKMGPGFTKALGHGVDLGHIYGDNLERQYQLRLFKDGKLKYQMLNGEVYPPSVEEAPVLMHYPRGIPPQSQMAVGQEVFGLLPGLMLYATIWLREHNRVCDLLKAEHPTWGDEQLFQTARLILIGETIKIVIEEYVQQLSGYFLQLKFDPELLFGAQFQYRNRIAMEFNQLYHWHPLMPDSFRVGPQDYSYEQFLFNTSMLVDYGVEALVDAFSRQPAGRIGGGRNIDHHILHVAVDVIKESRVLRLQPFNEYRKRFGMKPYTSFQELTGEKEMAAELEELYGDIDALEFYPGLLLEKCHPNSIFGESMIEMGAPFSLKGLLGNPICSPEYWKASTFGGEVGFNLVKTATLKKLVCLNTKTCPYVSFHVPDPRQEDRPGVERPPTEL
Kind of assay: Inhibition of sheep COX1 at 10 uM using arachidonic acid as substrate preincubated for 15 mins followed by substrate addition for 2 mins by Cayman based fluorescence assay.

The next assay has as its target Histone deacetylase 1 (Homo sapiens, UniProt Q13547). Kind of assay: Inhibition of HDAC1 (unknown origin) after 24 hrs by SAMDI mass spectroscopic analysis.
Assay [2] concerns LNCaP. Kind of assay: Induction of cell cycle arrest in human LNCAP cells assessed as accumulation at G1 phase at 2.5 uM after 24 hrs by propidium iodide staining based FACS analysis (reference value: 69.5%). The format is functional. On the technique in general: Flow cytometry measures light scatter and fluorescence of single cells or particles in a stream.
Assay [3] is described as follows: Cytotoxicity against human HeLa cells assessed as cell growth inhibition after 72 hrs by MTT assay. Background: Formazan colour is commonly taken as a measure of viable cells.
For assay [4], the system named is LNCaP. Briefly: Inhibition of class 1 HDAC in human LNCAP cells assessed as acetylated histone H4 accumulation after 24 hrs by Western blot analysis. The format is cell-based.
Another assay has as its target Histone deacetylase 3 (Homo sapiens, UniProt O15379). Briefly: Inhibition of HDAC3 (unknown origin) after 5 hrs by SAMDI mass spectroscopic analysis.
Assay [5] concerns LNCaP. Briefly: Induction of cell cycle arrest in human LNCAP cells assessed as accumulation at lesser G1 phase at 2.5 uM after 24 hrs by propidium iodide staining based FACS analysis (reference value: 1.59%). The format is functional.
For a further assay, the target named is T2, Histone deacetylase 8 (Homo sapiens, UniProt Q9BY41).
T2 sequence (Q9BY41 whole entry): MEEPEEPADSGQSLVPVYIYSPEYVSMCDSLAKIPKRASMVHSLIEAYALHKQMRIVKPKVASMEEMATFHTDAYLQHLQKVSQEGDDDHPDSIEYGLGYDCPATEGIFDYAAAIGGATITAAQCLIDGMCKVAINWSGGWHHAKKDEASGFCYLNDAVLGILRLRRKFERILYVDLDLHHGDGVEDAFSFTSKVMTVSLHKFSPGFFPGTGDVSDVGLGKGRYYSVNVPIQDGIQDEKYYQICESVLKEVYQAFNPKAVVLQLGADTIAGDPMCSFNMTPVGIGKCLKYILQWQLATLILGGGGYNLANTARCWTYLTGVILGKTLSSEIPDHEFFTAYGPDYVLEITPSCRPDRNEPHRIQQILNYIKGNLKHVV
Kind of assay: Inhibition of HDAC8 (unknown origin) after 2.5 hrs by SAMDI mass spectroscopic analysis.

The target in assay [6] is T3, Protein deacetylase HDAC6 (Homo sapiens) (UniProt Q9UBN7).
T3 sequence (whole entry): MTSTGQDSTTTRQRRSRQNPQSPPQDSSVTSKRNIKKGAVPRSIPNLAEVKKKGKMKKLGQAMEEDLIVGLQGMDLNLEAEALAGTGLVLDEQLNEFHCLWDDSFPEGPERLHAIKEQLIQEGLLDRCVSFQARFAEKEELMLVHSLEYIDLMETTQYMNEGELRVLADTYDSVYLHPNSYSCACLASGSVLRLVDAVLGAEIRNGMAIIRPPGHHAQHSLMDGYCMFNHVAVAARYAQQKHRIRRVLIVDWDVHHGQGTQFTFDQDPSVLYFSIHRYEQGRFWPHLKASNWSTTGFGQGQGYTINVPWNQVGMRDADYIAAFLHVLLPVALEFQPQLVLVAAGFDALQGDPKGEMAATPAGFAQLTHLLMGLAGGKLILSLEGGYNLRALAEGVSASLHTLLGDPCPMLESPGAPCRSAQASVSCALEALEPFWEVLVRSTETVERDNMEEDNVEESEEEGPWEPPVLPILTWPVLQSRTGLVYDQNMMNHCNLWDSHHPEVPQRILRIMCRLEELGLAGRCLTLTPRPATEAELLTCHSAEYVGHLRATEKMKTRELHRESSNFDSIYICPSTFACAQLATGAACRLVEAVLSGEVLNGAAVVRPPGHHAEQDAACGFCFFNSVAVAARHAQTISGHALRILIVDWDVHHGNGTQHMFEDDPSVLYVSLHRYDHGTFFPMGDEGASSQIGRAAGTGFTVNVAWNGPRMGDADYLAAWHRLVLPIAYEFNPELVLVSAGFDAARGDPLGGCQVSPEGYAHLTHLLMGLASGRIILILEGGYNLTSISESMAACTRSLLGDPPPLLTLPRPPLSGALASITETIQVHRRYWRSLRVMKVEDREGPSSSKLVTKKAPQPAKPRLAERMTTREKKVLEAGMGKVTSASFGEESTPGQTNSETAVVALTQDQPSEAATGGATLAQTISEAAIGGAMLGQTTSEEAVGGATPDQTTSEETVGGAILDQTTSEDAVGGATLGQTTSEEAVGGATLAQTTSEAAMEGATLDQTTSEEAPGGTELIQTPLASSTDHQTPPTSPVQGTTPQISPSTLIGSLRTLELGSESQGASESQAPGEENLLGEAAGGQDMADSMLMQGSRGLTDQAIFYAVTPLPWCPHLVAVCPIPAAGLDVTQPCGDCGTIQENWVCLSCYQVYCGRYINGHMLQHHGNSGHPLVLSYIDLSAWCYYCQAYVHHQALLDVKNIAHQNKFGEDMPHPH
Kind of assay: Inhibition of HDAC6 in human LNCAP cells assessed as acetylated tubulin accumulation in cytosol after 24 hrs by Western blot analysis. Type of assay: cell-based. (In general: In western blotting, separated proteins are transferred to a membrane and probed.)

Chain of Histone deacetylase 2 (Q92769 whole entry): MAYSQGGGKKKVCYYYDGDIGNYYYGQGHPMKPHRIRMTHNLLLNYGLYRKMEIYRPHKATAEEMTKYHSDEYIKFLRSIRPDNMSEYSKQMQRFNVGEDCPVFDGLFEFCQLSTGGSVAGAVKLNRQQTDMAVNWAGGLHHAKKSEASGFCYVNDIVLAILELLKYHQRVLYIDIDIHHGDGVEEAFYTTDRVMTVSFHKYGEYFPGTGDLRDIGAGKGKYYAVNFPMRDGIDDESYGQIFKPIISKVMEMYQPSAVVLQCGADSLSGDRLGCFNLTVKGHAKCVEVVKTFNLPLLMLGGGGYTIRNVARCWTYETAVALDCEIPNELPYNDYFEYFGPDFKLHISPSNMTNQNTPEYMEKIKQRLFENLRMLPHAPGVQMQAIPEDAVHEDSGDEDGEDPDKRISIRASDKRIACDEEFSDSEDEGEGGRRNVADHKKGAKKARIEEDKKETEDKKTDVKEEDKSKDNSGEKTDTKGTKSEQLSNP
Chain of Histone deacetylase 1 (Q13547 whole entry): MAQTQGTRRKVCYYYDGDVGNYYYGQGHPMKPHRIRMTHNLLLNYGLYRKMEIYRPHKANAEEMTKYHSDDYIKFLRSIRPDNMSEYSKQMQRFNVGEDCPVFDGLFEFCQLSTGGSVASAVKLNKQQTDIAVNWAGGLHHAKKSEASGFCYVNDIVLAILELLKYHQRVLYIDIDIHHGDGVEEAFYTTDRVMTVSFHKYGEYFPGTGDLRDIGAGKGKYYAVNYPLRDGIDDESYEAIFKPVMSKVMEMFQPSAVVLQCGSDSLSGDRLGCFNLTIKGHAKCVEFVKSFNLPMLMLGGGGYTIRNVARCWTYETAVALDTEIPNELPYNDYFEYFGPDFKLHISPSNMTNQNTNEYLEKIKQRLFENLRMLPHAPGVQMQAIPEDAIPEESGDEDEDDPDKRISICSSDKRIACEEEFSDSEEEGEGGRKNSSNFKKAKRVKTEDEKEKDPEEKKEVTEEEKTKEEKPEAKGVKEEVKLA
Chain of Histone deacetylase 3 (O15379 whole entry): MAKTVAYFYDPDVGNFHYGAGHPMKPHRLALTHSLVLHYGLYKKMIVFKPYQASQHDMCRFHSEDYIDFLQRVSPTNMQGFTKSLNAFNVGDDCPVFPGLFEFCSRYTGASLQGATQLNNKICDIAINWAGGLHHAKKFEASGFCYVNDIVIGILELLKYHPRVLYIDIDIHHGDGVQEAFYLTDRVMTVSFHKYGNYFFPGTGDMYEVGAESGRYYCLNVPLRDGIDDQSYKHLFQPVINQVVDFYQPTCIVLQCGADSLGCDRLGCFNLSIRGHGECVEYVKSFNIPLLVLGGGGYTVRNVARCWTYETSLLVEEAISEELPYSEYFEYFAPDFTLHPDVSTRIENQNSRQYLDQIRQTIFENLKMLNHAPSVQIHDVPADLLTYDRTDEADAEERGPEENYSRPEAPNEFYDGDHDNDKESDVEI

In the case of `Cc1ccc(-c2cc(C(F)(F)F)nn2-c2ccc(S(=O)(=O)NCCCCCCC(=O)NO)cc2)cc1`, the IC50 (in general, the concentration that gives 50% inhibition) was determined as 4050 nM against Histone deacetylase 2; 1030 nM at Histone deacetylase 1; 6500 nM in [3]; 424 nM at Histone deacetylase 3; 412 nM at Histone deacetylase 8. Also, the inhibition (in general, the share of the control response that was lost under treatment) is 61.4% in assay [1], “Dose-dependent effect” in the assay with LNCaP [4] and “Dose-dependent effect” in assay [6]. Also, the figures for the Activity in the assay on LNCaP [2] and with LNCaP [5] were 57.4% and -0.32%, respectively.

In the case of `COc1ccc2c(c1)c(CC(=O)NCCCCCCC(=O)NO)c(C)n2C(=O)c1ccc(Cl)cc1`, the IC50 on Histone deacetylase 2 was determined as 854 nM; on Histone deacetylase 1, 980 nM; in assay [3], 8870 nM; against Histone deacetylase 3, 356 nM; against Histone deacetylase 8 it was 109 nM. The inhibition in assay [1] was 22.8%; in the assay on LNCaP [4], “Dose-dependent effect”; in assay [6] it was “Dose-dependent effect”. In addition, the Activity is given as 62.5% in the assay with LNCaP [2] and 1.95% in the assay with LNCaP [5].
